This note sets out measurements from patent US20240115705A1, “Regulation of Butyrophilin subfamily 3 member A1 (BTN3A1, CD277)” (The J. Gladstone Institutes, a testamentary trust …, priority 2021, published 2024).

For this data set, the system named is Daudi-Cas9 cells. Nature of the data set: Cancer-T cell co-culture genome-wide CRISPR knockout screen (Vγ9Vδ2 T cell killing). Format: cell-based, human. As to conditions: for score: MAGeCK sgRNA test, co-culture screen; for LFC: log-fold change of sgRNA, surviving cells after co-culture vs baseline; for LFC / treat mean: MAGeCK; for treat mean: sgRNA abundance in surviving Daudi-Cas9 KO cells after 24 hours Vγ9Vδ2 T cell co-culture with zoledronate; for high_in_treatment: sgRNA enriched (TRUE) or depleted (FALSE) after T cell co-culture.

For the substance “AARS2_ATCCGCCTACCCCGCTCCA: library sgRNA targeting AARS2 (listed as DNA, chemistry not fully specified)”, the score was 6.7194, the LFC is given as −4.9928, the treat mean came out at 99.765 and the high_in_treatment result is “FALSE”.

As for “ABCF1_AGCATCTCCGCTCATGGCA: library sgRNA targeting ABCF1 (listed as DNA, chemistry not fully specified)”, the score is 5.9741, the LFC is on record as −2.7126, the treat mean was determined as 504.57 and the high_in_treatment result was “FALSE”.

In the case of “ACACA_GTTAGAGACGCTATTCCGC: library sgRNA targeting ACACA (listed as DNA, chemistry not fully specified)”, the score is on record as 7.4534, the LFC is reported as −5.2135, the treat mean was determined as 104.65 and the high_in_treatment entry is “FALSE”.

With “ACAT2_CAAGTGAGTAGAGAAGATC: library sgRNA targeting ACAT2 (listed as DNA, chemistry not fully specified)”, the score is listed as 6.1049, the LFC is recorded as 1.9893, the treat mean was 1085.8 and the high_in_treatment result is on record as “TRUE”.

“ACAT2_CAGTCCAGTCAATAGGGAT: library sgRNA targeting ACAT2 (listed as DNA, chemistry not fully specified)”: the score is 12.759, the LFC was 2.0827, the treat mean turned out to be 4335.4 and the high_in_treatment result was “TRUE”.

For “ALCAM_GTGTGCATGCTAGTAACTG: library sgRNA targeting ALCAM (listed as DNA, chemistry not fully specified)”, the score was determined as 6.8519, the LFC was 1.5404, the treat mean came to 2462.2 and the high_in_treatment entry was “TRUE”.

Take “ALG12_TGCGATCACCACTGGCCCG: library sgRNA targeting ALG12 (listed as DNA, chemistry not fully specified)”: the score was found to be 6.0622, the LFC was −3.0699, the treat mean worked out at 374.84 and the high_in_treatment result is on record as “FALSE”.

With “ARL14EPL_TTAATAGCAACAAATAGAG: library sgRNA targeting ARL14EPL (listed as DNA, chemistry not fully specified)”, the score came to 7.215, the LFC was 3.9422, the treat mean was 227.01 and the high_in_treatment entry is listed as “TRUE”.

As for “BCCIP_AATCTCTTACTGAAGCTGC: library sgRNA targeting BCCIP (listed as DNA, chemistry not fully specified)”, the score was 6.3357, the LFC is −5.3797, the treat mean stood at 64.834 and the high_in_treatment result is “FALSE”.

As for “BLQC1S1_ACCAAAGCTTCTGTCAGGC: library sgRNA targeting BLQC-1S1 (listed as DNA, chemistry not fully specified)”, the score is on record as 6.0173, the LFC was −1.8638, the treat mean worked out at 1264.6 and the high_in_treatment entry was “FALSE”.

“BTN2A1_AGCCCCTCATTTCAATGAG: library sgRNA targeting BTN2A1 (listed as DNA, chemistry not fully specified)”: the score is listed as 7.0382, the LFC is 1.7442, the treat mean was 1965.3 and the high_in_treatment result is on record as “TRUE”.

For “BTN2A1_ATGAGGGGCCATGAAGACG: library sgRNA targeting BTN2A1 (listed as DNA, chemistry not fully specified)”, the score is reported as 7.3174, the LFC turned out to be 2.3876, the treat mean was found to be 1007.3 and the high_in_treatment result was “TRUE”.

In the case of “BTN2A1_TCTCCATGCCTGATGCAGA: library sgRNA targeting BTN2A1 (listed as DNA, chemistry not fully specified)”, the score is 11.104, the LFC is reported as 1.6551, the treat mean is 5566.5 and the high_in_treatment entry is “TRUE”.

Turning to “BTN2A1_TCTTGGAAGTAACAGCGGT: library sgRNA targeting BTN2A1 (listed as DNA, chemistry not fully specified)”, the score is listed as 18.758, the LFC turned out to be 2.4492, the treat mean amounted to 6366.6 and the high_in_treatment entry was “TRUE”.

As to “BTN2A2_TGTGCACTGGTCTCAGGTA: library sgRNA targeting BTN2A2 (listed as DNA, chemistry not fully specified)”, the score worked out at 13.201, the LFC was determined as 2.0744, the treat mean is 4689.1 and the high_in_treatment entry was “TRUE”.

On to “BTN3A1_AGAGTTGAGAGAAATGGCA: library sgRNA targeting BTN3A1 (listed as DNA, chemistry not fully specified)”, for which the score came out at 18.173, the LFC turned out to be 2.7951, the treat mean was determined as 4251.1 and the high_in_treatment entry is reported as “TRUE”.

Take “BTN3A1_AGGGAACTTCTGATGGTAC: library sgRNA targeting BTN3A1 (listed as DNA, chemistry not fully specified)”: the score is 8.7326, the LFC is listed as 1.7308, the treat mean is listed as 3095 and the high_in_treatment entry is “TRUE”.

For the substance “BTN3A1_CAGGGCGGCGATCCACCTC: library sgRNA targeting BTN3A1 (listed as DNA, chemistry not fully specified)”, the score was found to be 11.298, the LFC is on record as 2.049, the treat mean amounted to 3523.7 and the high_in_treatment result is reported as “TRUE”.

Consider “BTN3A1_CTTCTTCAGGAGCGCCCAG: library sgRNA targeting BTN3A1 (listed as DNA, chemistry not fully specified)”, for which the score is 19.78, the LFC came to 2.2076, the treat mean came out at 9150.3 and the high_in_treatment entry was “TRUE”.

On to “BTN3A1_GGGAGCCGGTTACTTCCTG: library sgRNA targeting BTN3A1 (listed as DNA, chemistry not fully specified)”, for which the score came out at 21.24, the LFC was found to be 2.5697, the treat mean was determined as 7249.9 and the high_in_treatment entry is “TRUE”.

Regarding “BTN3A1_GTTGATGTGAAGGGTTACA: library sgRNA targeting BTN3A1 (listed as DNA, chemistry not fully specified)”, the score worked out at 9.8596, the LFC came out at 1.9969, the treat mean stood at 2842.7 and the high_in_treatment result is listed as “TRUE”.

With “BTN3A1_TGCTGCTTCTTGGGGGAGC: library sgRNA targeting BTN3A1 (listed as DNA, chemistry not fully specified)”, the score is given as 17.532, the LFC was 2.0651, the treat mean is recorded as 8413.1 and the high_in_treatment result was “TRUE”.

“BTN3A2_ACGTCACAGCCTCTGACAG: library sgRNA targeting BTN3A2 (listed as DNA, chemistry not fully specified)”: the score came to 17.862, the LFC is given as 2.2137, the treat mean was determined as 7396.6 and the high_in_treatment entry is given as “TRUE”.

On to “BTN3A2_GCGGGATGGCATCACTGCA: library sgRNA targeting BTN3A2 (listed as DNA, chemistry not fully specified)”, for which the score is on record as 15.831, the LFC was determined as 2.3489, the treat mean is reported as 5012.6 and the high_in_treatment result is on record as “TRUE”.

“CCDC82_AAGAGCTTGATAGTAACAA: library sgRNA targeting CCDC82 (listed as DNA, chemistry not fully specified)”: the score stood at 7.3303, the LFC came out at 4.8194, the treat mean is listed as 83.034 and the high_in_treatment result is reported as “TRUE”.

In the case of “DKK1_CGCTAGTCCCACCCGCGGA: library sgRNA targeting DKK1 (as printed in the source, key not given here)”, the score came out at 6.0866, the LFC is recorded as 1.0785, the treat mean is listed as 4197.4 and the high_in_treatment result was “TRUE”.

Take “DNLZ_CAGCTCGTCTACACCTGCA: library sgRNA targeting DNLZ (as printed in the source, key not given here)”: the score was found to be 6.2683, the LFC is listed as −8.2244, the treat mean is on record as 6.7801 and the high_in_treatment entry is “FALSE”.

Turning to “EEFSEC_TCACGCTGGTCGACTGCCC: library sgRNA targeting EEFSEC (listed as DNA, chemistry not fully specified)”, the score turned out to be 6.5622, the LFC was −8.5255, the treat mean was determined as 6.8247 and the high_in_treatment result is reported as “FALSE”.

For “EEFSEC_TCATCCGGACCATCATCGG: library sgRNA targeting EEFSEC (listed as DNA, chemistry not fully specified)”, the score is listed as 6.18, the LFC is on record as −4.9819, the treat mean turned out to be 83.299 and the high_in_treatment entry is listed as “FALSE”.

Take “FBXW7_AGGTTTCATACACAGTCCA: library sgRNA targeting FBXW7 (as printed in the source, key not given here)”: the score amounted to 7.629, the LFC came to 1.4859, the treat mean is on record as 3314.5 and the high_in_treatment entry is on record as “TRUE”.
